Data published in the kinase profiling compilation of Christmann-Franck et al. (2016).

Columns and labels:
Test in all cases: radiometric filter-binding kinase assay, Kinase HotSpot
Settings in all cases: compound 0.5 µM; ATP 10 µM
STK33 (human) = STK33 (human) (UniProt Q9BYT3)
CDK9 CCNT1 (human) = CDK9 CCNT1 (human) (UniProt P50750+O60563)
ZAP70 (human) = ZAP70 (human) (UniProt P43403)
MAP3K5 (human) = MAP3K5 (human) (UniProt Q99683)
MAP3K14 (human) = MAP3K14 (human) (UniProt Q99558)
SYK (human) = SYK (human) (UniProt P43405)
NLK (human) = NLK (human) (UniProt Q9UBE8)
CSNK1E (human) = CSNK1E (human) (UniProt P49674)
SGK3 (human) = SGK3 (human) (UniProt Q96BR1)
HIPK4 (human) = HIPK4 (human) (UniProt Q8NE63)
IGF1R (human) = IGF1R (human) (UniProt P08069)
AURKB (human) = AURKB (human) (UniProt Q96GD4)
Chain of AURKB (human) (Q96GD4 whole entry, looked up): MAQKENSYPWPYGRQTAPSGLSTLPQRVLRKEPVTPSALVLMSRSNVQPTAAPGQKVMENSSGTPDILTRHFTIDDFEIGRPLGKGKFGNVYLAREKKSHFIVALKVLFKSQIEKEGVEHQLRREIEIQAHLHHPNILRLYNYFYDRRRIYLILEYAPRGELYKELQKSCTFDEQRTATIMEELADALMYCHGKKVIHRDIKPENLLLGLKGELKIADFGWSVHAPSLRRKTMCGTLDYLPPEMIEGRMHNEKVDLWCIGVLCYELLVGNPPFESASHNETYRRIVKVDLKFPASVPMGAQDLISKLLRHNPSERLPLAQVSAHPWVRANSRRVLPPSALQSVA

PRKCE (human) = PRKCE (human) (UniProt Q02156)
PTK2B (human) = PTK2B (human) (UniProt Q14289)
CDK9 CCNK (human) = CDK9 CCNK (human) (UniProt O75909+P50750)
[1] = target: TYK2 JH1 catalytic (human) (UniProt P29597)
Chain of TYK2 JH1 catalytic (human) (P29597 whole entry, looked up): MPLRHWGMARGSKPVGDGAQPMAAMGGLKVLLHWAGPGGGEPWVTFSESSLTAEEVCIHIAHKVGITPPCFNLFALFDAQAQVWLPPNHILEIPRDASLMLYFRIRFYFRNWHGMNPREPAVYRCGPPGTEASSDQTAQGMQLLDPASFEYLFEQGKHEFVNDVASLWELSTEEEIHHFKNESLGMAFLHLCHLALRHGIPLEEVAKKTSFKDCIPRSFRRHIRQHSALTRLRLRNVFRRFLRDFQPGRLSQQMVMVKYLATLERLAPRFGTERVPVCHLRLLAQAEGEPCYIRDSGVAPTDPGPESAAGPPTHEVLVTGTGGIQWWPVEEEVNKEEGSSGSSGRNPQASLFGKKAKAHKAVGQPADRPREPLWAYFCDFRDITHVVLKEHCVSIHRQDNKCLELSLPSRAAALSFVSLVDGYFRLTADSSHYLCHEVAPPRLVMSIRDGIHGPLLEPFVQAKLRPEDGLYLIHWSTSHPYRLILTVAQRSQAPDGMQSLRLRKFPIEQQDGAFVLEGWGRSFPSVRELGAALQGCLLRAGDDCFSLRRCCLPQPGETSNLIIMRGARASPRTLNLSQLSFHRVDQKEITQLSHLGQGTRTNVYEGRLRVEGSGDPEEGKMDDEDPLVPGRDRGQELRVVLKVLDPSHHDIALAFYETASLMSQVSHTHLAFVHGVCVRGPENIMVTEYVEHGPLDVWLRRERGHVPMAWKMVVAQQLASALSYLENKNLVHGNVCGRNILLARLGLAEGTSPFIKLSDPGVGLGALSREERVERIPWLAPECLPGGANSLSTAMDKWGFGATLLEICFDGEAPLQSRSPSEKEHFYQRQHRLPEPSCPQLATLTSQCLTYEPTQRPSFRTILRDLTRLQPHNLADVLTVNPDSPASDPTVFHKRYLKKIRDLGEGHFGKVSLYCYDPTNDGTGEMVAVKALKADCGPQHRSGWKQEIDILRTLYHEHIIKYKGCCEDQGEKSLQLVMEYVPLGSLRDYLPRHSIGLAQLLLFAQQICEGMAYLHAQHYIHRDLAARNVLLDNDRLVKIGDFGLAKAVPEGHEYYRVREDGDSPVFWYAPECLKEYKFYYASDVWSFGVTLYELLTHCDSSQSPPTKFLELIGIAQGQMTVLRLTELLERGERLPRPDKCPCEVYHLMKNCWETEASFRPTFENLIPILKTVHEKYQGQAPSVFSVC

TAOK3 (human) = TAOK3 (human) (UniProt Q9H2K8)
DAPK1 (human) = DAPK1 (human) (UniProt P53355)
Chain of DAPK1 (human) (P53355 whole entry, looked up): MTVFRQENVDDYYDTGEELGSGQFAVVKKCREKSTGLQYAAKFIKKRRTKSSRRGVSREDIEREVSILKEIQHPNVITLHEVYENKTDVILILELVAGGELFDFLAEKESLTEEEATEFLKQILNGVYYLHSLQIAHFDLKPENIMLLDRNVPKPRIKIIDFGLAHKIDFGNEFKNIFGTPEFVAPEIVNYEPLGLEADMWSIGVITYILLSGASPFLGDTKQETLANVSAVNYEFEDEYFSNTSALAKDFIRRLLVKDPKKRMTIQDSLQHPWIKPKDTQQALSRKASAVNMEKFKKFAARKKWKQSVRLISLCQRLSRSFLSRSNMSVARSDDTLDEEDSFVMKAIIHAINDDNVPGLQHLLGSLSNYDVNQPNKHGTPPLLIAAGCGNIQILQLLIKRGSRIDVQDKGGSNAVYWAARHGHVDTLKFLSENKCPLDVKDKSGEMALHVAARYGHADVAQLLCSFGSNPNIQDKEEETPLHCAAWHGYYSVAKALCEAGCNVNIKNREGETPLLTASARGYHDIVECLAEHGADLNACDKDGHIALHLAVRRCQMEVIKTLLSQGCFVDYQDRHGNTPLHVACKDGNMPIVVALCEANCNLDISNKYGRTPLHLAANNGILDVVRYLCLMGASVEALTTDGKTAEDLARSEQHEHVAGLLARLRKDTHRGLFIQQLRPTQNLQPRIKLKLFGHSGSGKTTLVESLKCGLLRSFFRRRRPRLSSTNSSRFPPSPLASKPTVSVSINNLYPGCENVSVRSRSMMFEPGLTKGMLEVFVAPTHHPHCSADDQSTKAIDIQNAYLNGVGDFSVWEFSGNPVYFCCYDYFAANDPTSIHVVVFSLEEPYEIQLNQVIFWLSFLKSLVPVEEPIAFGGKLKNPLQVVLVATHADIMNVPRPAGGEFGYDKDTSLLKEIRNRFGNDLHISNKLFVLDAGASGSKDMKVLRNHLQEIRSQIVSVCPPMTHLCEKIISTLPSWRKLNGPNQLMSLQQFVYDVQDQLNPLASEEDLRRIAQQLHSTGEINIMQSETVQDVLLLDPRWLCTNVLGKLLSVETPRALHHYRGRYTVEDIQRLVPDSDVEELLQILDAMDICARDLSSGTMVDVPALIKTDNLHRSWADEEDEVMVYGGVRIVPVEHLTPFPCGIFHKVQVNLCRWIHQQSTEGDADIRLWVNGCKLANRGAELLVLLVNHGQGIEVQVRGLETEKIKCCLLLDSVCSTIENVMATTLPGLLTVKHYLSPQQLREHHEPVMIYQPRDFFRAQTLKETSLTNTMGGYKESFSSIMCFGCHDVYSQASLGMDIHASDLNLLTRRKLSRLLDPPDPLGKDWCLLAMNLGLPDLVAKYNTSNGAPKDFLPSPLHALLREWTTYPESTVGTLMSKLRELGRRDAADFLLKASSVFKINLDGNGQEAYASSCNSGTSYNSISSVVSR

MAP3K3 (human) = MAP3K3 (human) (UniProt Q99759)
SRPK2 (human) = SRPK2 (human) (UniProt P78362)
NTRK2 (human) = NTRK2 (human) (UniProt Q16620)
PLK3 (human) = PLK3 (human) (UniProt Q9H4B4)
STK4 (human) = STK4 (human) (UniProt Q13043)
Chain of STK4 (human) (Q13043 whole entry, looked up): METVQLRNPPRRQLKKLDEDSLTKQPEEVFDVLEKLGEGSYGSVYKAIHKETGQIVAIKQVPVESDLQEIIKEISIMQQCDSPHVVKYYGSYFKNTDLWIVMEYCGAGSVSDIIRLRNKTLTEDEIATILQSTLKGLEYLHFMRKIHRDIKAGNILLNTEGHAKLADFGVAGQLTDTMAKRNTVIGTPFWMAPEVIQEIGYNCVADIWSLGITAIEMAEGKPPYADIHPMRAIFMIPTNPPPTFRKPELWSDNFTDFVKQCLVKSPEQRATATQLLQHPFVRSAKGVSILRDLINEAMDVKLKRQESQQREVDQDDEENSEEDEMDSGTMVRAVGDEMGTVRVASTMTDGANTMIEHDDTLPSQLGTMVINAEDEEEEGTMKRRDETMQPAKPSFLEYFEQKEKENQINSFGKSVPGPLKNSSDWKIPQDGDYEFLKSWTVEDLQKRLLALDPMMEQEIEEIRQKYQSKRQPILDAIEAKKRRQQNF

TXK (human) = TXK (human) (UniProt P42681)
ITK (human) = ITK (human) (UniProt Q08881)
GSG2 (human) = GSG2 (human) (UniProt Q8TF76)
TEK (human) = TEK (human) (UniProt Q02763)
FLT1 (human) = FLT1 (human) (UniProt P17948)
AXL (human) = AXL (human) (UniProt P30530)
CAMK1G (human) = CAMK1G (human) (UniProt Q96NX5)
CLK1 (human) = CLK1 (human) (UniProt P49759)
MAP3K9 (human) = MAP3K9 (human) (UniProt P80192)
WNK2 (human) = WNK2 (human) (UniProt Q9Y3S1)
MAPKAPK2 (human) = MAPKAPK2 (human) (UniProt P49137)
PAK1 (human) = PAK1 (human) (UniProt Q13153)
RPS6KB2 (human) = RPS6KB2 (human) (UniProt Q9UBS0)
FLT3 (human) = FLT3 (human) (UniProt P36888)
YES1 (human) = YES1 (human) (UniProt P07947)
PLK2 (human) = PLK2 (human) (UniProt Q9NYY3)
HIPK2 (human) = HIPK2 (human) (UniProt Q9H2X6)

Chain of STK33 (human) (Q9BYT3 whole entry, looked up): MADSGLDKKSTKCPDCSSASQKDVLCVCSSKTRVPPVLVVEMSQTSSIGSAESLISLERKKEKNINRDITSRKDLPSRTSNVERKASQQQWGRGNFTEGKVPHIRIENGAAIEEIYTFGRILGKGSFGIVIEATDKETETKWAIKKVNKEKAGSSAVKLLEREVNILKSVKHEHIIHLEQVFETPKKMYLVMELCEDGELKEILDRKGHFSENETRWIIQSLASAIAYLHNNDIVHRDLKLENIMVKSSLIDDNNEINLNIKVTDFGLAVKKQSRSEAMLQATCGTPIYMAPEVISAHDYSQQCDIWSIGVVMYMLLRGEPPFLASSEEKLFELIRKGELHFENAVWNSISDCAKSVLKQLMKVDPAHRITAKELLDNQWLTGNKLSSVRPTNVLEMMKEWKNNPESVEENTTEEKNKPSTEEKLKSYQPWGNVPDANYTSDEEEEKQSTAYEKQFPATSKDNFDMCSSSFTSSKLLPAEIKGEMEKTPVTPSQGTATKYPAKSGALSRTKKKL
Chain of CDK9 CCNT1 (human) (O60563 whole entry, looked up): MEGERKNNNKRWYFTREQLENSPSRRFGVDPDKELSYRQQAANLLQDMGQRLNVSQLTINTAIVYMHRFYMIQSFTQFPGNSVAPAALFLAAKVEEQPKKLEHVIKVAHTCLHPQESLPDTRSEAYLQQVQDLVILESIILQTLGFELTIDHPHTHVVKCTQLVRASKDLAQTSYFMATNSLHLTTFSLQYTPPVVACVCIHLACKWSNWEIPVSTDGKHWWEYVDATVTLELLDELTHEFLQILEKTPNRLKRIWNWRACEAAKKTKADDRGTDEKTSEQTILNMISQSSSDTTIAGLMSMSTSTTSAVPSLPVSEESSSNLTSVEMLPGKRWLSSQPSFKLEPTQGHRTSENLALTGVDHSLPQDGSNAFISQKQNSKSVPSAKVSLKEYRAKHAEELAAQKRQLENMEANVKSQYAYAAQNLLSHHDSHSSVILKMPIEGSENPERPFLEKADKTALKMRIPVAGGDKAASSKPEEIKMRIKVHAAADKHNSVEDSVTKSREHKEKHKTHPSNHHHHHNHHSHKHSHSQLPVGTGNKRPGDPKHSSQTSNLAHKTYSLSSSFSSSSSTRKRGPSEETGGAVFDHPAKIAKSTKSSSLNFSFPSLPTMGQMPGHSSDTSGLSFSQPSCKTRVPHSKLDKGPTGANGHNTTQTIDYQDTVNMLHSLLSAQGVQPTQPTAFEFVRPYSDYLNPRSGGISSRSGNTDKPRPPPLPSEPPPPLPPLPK
Chain of CDK9 CCNT1 (human) (P50750 whole entry, looked up): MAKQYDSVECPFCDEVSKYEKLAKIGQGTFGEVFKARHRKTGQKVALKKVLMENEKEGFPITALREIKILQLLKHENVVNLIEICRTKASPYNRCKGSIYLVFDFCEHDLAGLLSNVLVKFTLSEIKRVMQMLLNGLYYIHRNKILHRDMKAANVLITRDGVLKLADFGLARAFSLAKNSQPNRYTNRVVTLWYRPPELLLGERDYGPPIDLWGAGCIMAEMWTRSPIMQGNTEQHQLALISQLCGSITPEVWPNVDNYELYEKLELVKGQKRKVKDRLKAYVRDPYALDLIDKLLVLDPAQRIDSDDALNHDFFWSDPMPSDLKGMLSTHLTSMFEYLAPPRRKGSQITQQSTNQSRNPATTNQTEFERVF

SMILES	residual activity (STK33 (human)) [%]	residual activity (CDK9 CCNT1 (human)) [%]	residual activity (ZAP70 (human)) [%]	residual activity (MAP3K5 (human)) [%]	residual activity (MAP3K14 (human)) [%]	residual activity (SYK (human)) [%]	residual activity (NLK (human)) [%]	residual activity (CSNK1E (human)) [%]	residual activity (SGK3 (human)) [%]	residual activity (HIPK4 (human)) [%]	residual activity (AURKB (human)) [%]	residual activity (PRKCE (human)) [%]	residual activity (PTK2B (human)) [%]	residual activity (CDK9 CCNK (human)) [%]	residual activity [1] [%]	residual activity (TAOK3 (human)) [%]	residual activity (DAPK1 (human)) [%]	residual activity (MAP3K3 (human)) [%]	residual activity (NTRK2 (human)) [%]	residual activity (PLK3 (human)) [%]	also measured
O=S(=O)(c1cccc2cnccc12)N1CCCNCC1	90.3	80.7	108	88.7	97.7	84.3	97.3	99.3	91.6	103	98.8	76.5	90.6	86	81.6	97.3	79	89.3	102	102	residual activity (IGF1R (human)): 112%; residual activity (SRPK2 (human)): 83.9%; residual activity (STK4 (human)): 94.8%; residual activity (TXK (human)): 84.1%; residual activity (ITK (human)): 90.7%; residual activity (GSG2 (human)): 86.6%; residual activity (TEK (human)): 98.4%; residual activity (FLT1 (human)): 90%; residual activity (AXL (human)): 97.2%; residual activity (CAMK1G (human)): 101%; residual activity (CLK1 (human)): 96.3%; residual activity (MAP3K9 (human)): 94.4%; residual activity (WNK2 (human)): 99.3%; residual activity (MAPKAPK2 (human)): 101%; residual activity (PAK1 (human)): 94.6%; residual activity (RPS6KB2 (human)): 81.9%; residual activity (FLT3 (human)): 103%; residual activity (YES1 (human)): 96.5%; residual activity (PLK2 (human)): 100%
O=c1cc(N2CCOCC2)oc2c1ccc1ccccc12	97.5	99.1	103	98.2	81.2	93	103	92.5	106	101	97.6	89.6	94.3	99.9	111	98.7	90.9	102	94	64	residual activity (HIPK2 (human)): 105%; residual activity (SRPK2 (human)): 100%; residual activity (STK4 (human)): 99.5%; residual activity (TXK (human)): 98.9%; residual activity (ITK (human)): 100%; residual activity (GSG2 (human)): 85.6%; residual activity (TEK (human)): 94.4%; residual activity (FLT1 (human)): 95.5%; residual activity (AXL (human)): 98.1%; residual activity (CAMK1G (human)): 102%; residual activity (CLK1 (human)): 98.3%; residual activity (MAP3K9 (human)): 111%; residual activity (WNK2 (human)): 103%; residual activity (MAPKAPK2 (human)): 98.3%; residual activity (PAK1 (human)): 93.5%; residual activity (RPS6KB2 (human)): 99.6%; residual activity (FLT3 (human)): 104%; residual activity (YES1 (human)): 98.7%; residual activity (PLK2 (human)): 106%
COc1ccc2c(c[n+](C)c3c4cc5c(cc4ccc23)OCO5)c1OC	102	96.4	101	114	88.1	98.8	102	90.7	96	95.9	99.2	93.6	92.3	95.6	108	96.1	86.7	101	104	100	residual activity (IGF1R (human)): 93.3%; residual activity (HIPK2 (human)): 92.6%; residual activity (STK4 (human)): 98.9%; residual activity (TXK (human)): 100%; residual activity (ITK (human)): 99.2%; residual activity (GSG2 (human)): 98.8%; residual activity (TEK (human)): 97.2%; residual activity (FLT1 (human)): 88.8%; residual activity (AXL (human)): 98%; residual activity (CAMK1G (human)): 100%; residual activity (CLK1 (human)): 101%; residual activity (MAP3K9 (human)): 98.1%; residual activity (WNK2 (human)): 98.5%; residual activity (MAPKAPK2 (human)): 103%; residual activity (PAK1 (human)): 98.7%; residual activity (RPS6KB2 (human)): 99.6%; residual activity (FLT3 (human)): 76.9%; residual activity (YES1 (human)): 93.8%; residual activity (PLK2 (human)): 97.6%
